From PMC6422671 (British Journal of Clinical Pharmacology, 2019)

Assay: Vital signs; data mean (standard deviation)
Format: in vivo, healthy men
Text: Data are mean (standard deviation)

C[C@@H](N)c1cc(Cl)ccc1Cn1c(=S)[nH]c(=O)c2[nH]ccc21 [AZD4831]
DBP (5 mg fasted, 0.5 h): 71 (7) mmHg
Pulse (5 mg fasted, 0.5 h): 61 (4) bpm
SBP (5 mg fasted, 0.5 h): 116 (10) mmHg
DBP (5 mg fasted, 1 h): 71 (7) mmHg
Pulse (5 mg fasted, 1 h): 61 (5) bpm
SBP (5 mg fasted, 1 h): 114 (8) mmHg
DBP (5 mg fasted, 2 h): 71 (5) mmHg
Pulse (5 mg fasted, 2 h): 60 (4) bpm
SBP (5 mg fasted, 2 h): 119 (10) mmHg
DBP (5 mg fasted, 3 h): 72 (9) mmHg
Pulse (5 mg fasted, 3 h): 60 (4) bpm
SBP (5 mg fasted, 3 h): 119 (12) mmHg
DBP (5 mg fasted, 4 h): 71 (7) mmHg
Pulse (5 mg fasted, 4 h): 64 (5) bpm
SBP (5 mg fasted, 4 h): 118 (9) mmHg
DBP (5 mg fasted, 6 h): 69 (8) mmHg
Pulse (5 mg fasted, 6 h): 68 (5) bpm
SBP (5 mg fasted, 6 h): 118 (11) mmHg
DBP (5 mg fasted, 8 h): 68 (5) mmHg
Pulse (5 mg fasted, 8 h): 62 (5) bpm
SBP (5 mg fasted, 8 h): 117 (9) mmHg
DBP (5 mg fasted, 12 h): 69 (9) mmHg
Pulse (5 mg fasted, 12 h): 68 (4) bpm
SBP (5 mg fasted, 12 h): 118 (13) mmHg
DBP (5 mg fasted, 24 h): 69 (5) mmHg
Pulse (5 mg fasted, 24 h): 59 (5) bpm
SBP (5 mg fasted, 24 h): 112 (5) mmHg
DBP (5 mg fasted, 36 h): 69 (4) mmHg
Pulse (5 mg fasted, 36 h): 68 (5) bpm
SBP (5 mg fasted, 36 h): 119 (6) mmHg
DBP (5 mg fasted, 48 h): 70 (4) mmHg
Pulse (5 mg fasted, 48 h): 64 (9) bpm
SBP (5 mg fasted, 48 h): 116 (8) mmHg
DBP (15 mg fasted, 0.5 h): 68 (4) mmHg
Pulse (15 mg fasted, 0.5 h): 58 (9) bpm
SBP (15 mg fasted, 0.5 h): 115 (7) mmHg
DBP (15 mg fasted, 1 h): 67 (4) mmHg
Pulse (15 mg fasted, 1 h): 61 (9) bpm
SBP (15 mg fasted, 1 h): 115 (8) mmHg
DBP (15 mg fasted, 2 h): 65 (2) mmHg
Pulse (15 mg fasted, 2 h): 58 (6) bpm
SBP (15 mg fasted, 2 h): 113 (4) mmHg
DBP (15 mg fasted, 3 h): 65 (3) mmHg
Pulse (15 mg fasted, 3 h): 58 (4) bpm
SBP (15 mg fasted, 3 h): 112 (5) mmHg
DBP (15 mg fasted, 4 h): 66 (6) mmHg
Pulse (15 mg fasted, 4 h): 59 (8) bpm
SBP (15 mg fasted, 4 h): 113 (5) mmHg
DBP (15 mg fasted, 6 h): 65 (2) mmHg
Pulse (15 mg fasted, 6 h): 68 (9) bpm
SBP (15 mg fasted, 6 h): 119 (9) mmHg
DBP (15 mg fasted, 8 h): 64 (2) mmHg
Pulse (15 mg fasted, 8 h): 63 (11) bpm
SBP (15 mg fasted, 8 h): 116 (7) mmHg
DBP (15 mg fasted, 12 h): 64 (4) mmHg
Pulse (15 mg fasted, 12 h): 69 (10) bpm
SBP (15 mg fasted, 12 h): 119 (5) mmHg
DBP (15 mg fasted, 24 h): 67 (2) mmHg
Pulse (15 mg fasted, 24 h): 62 (7) bpm
SBP (15 mg fasted, 24 h): 113 (4) mmHg
DBP (15 mg fasted, 36 h): 63 (4) mmHg
Pulse (15 mg fasted, 36 h): 73 (9) bpm
SBP (15 mg fasted, 36 h): 118 (5) mmHg
DBP (15 mg fasted, 48 h): 66 (5) mmHg
Pulse (15 mg fasted, 48 h): 65 (12) bpm
SBP (15 mg fasted, 48 h): 114 (7) mmHg
DBP (45 mg fasted, 0.5 h): 73 (14) mmHg
Pulse (45 mg fasted, 0.5 h): 59 (11) bpm
SBP (45 mg fasted, 0.5 h): 122 (13) mmHg
DBP (45 mg fasted, 1 h): 72 (14) mmHg
Pulse (45 mg fasted, 1 h): 57 (10) bpm
SBP (45 mg fasted, 1 h): 125 (12) mmHg
DBP (45 mg fasted, 2 h): 69 (15) mmHg
Pulse (45 mg fasted, 2 h): 59 (10) bpm
SBP (45 mg fasted, 2 h): 122 (17) mmHg
DBP (45 mg fasted, 3 h): 70 (13) mmHg
Pulse (45 mg fasted, 3 h): 60 (8) bpm
SBP (45 mg fasted, 3 h): 120 (14) mmHg
DBP (45 mg fasted, 4 h): 69 (16) mmHg
Pulse (45 mg fasted, 4 h): 58 (8) bpm
SBP (45 mg fasted, 4 h): 121 (13) mmHg
DBP (45 mg fasted, 6 h): 66 (7) mmHg
Pulse (45 mg fasted, 6 h): 61 (10) bpm
SBP (45 mg fasted, 6 h): 120 (9) mmHg
DBP (45 mg fasted, 8 h): 68 (15) mmHg
Pulse (45 mg fasted, 8 h): 59 (11) bpm
SBP (45 mg fasted, 8 h): 116 (11) mmHg
DBP (45 mg fasted, 12 h): 68 (11) mmHg
Pulse (45 mg fasted, 12 h): 63 (12) bpm
SBP (45 mg fasted, 12 h): 124 (12) mmHg
DBP (45 mg fasted, 24 h): 71 (11) mmHg
Pulse (45 mg fasted, 24 h): 58 (11) bpm
SBP (45 mg fasted, 24 h): 118 (9) mmHg
DBP (45 mg fasted, 36 h): 66 (14) mmHg
Pulse (45 mg fasted, 36 h): 66 (11) bpm
SBP (45 mg fasted, 36 h): 121 (9) mmHg
DBP (45 mg fasted, 48 h): 69 (11) mmHg
Pulse (45 mg fasted, 48 h): 64 (13) bpm
SBP (45 mg fasted, 48 h): 120 (10) mmHg
